Structures are written as SMILES.

This test relates to beet armyworm (Spodoptera exigua). The test is described as follows: Insecticidal test for beet armyworm, treated diet surface. It is filed as in vivo. The conditions noted are these: 100 μg/cm^2 on diet surface, first instar larvae, 32 insects per treatment, observations 24, 48 and 96 hours. On the procedure:
The compounds identified in Table 8 were prepared according to the previous methods and were tested against beet armyworm and corn earworm as follows:
Insecticidal Test for Beet Armyworm (Spodoptera exigua).
To prepare the test solution, the test compound was Formulated at 3499 ppm in solution as 5 mg compound/1.429 mL of 9 parts acetone: 1 part deionized H2O and vortexed to homogenize. 50 μL of the 3499 ppm (equivalent to 100 μg/cm^2 dose on diet surface area) test solution was pipetted upon the surface of 1 mL of solidified cool Southland Products Incorporated Beet Armyworm Diet (201 Stuart Island Road Lake Village, Ark. 71653) using an Eppendorf Repeater Plus with a 1 mL pipette tip. All pipetting of treatments was done in a Labconco Hood. Thirty minutes were allowed for the acetone to evaporate leaving a dose of 100 μg/cm^2 on the surface of the artificial diet. Two 24 hour old first instar Beet Armyworm (Spodoptera Exigua) larvae were placed in each well of the 128 well Bio-BA 128 Bioassay trays (CD International, Pitman, N.J., 08071, USA) using a #0 fine camel hair paint brush. Bioassay trays were sectioned into treatment groups of 8 with 16 replicates per treatment group (32 insects per treatment). Trays containing the treated diet and larvae were covered with a Bio-CV-16 cover (CD International, Pitman, N.J., 08071, USA) and then placed on a rack under florescent lights at 27° C., 20% relative humidity (RH) in the room, and 16 hr light: 8 hr dark for 96 hours. Observations were made 24, 48 and 96 hours after treatment and infestation. The number of insects dead were counted out of the 32 insects total per treatment and the results are given in a table as a percent mortality at a dose of 100 μg/cm^2. When finished, the tray was moved to the −5° C. freezer and left for 24 hr to insure mortality of the remaining S. exigua. After 24 hours, dispose of entire tray into waste bin.
Keys to the table: Mortality refers to activity against beet army worm (Spodoptera exigua) as defined above at the concentration of 100 μg/cm^2 (A=76-100% mortality, B=51-75% mortality, C=26-50% mortality and D=0-25% mortality).
Turning to `FC(F)(F)Oc1ccc(C=NNc2cc(Nc3ccc(Cl)cc3)nc(-c3ccccc3)n2)cc1` [Example 46, N-(4-chlorophenyl)-2-phenyl-6-(2-(4-(trifluoromethoxy)benzylidene)hydrazinyl)pyrimidin-4-amine], the mortality at 100 µg/cm2 fell in the range of 76 to 100%.
The value for `Fc1cccc(Cl)c1-c1nc(NN=Cc2ccc(OC(F)(F)F)cc2)nc(Nc2ccc(Cl)nc2)n1` [Example 13, 4-(2-chloro-6-fluorophenyl)-N-(6-chloropyridin-3-yl)-6-(2-(4-(trifluoromethoxy)benzylidene)hydrazinyl)-1,3,5-triazin-2-amine] was 76 to 100%; that for `N#Cc1ccc(C=NNc2nc(Nc3ccc(Cl)cc3)nc(-c3c(F)cccc3Cl)n2)cc1` [Example 18] was 76 to 100%.
Next, `Fc1cccc(Cl)c1-c1nc(NCc2ccc(Cl)cc2)nc(NN=Cc2ccc(OC(F)(F)F)cc2)n1` [Example 60, 4-(2-chloro-6-fluorophenyl)-N-(4-chlorobenzyl)-6-(2-(4-(trifluoromethoxy)benzylidene)hydrazinyl)-1,3,5-triazin-2-amine]: 76 to 100%; `Fc1cccc(Cl)c1C=NNc1nc(Nc2ccc(Cl)cc2)nc(-c2ccc(OC(F)(F)F)cc2)n1` [Example 48, 4-(2-(2-chloro-6-fluorobenzylidene)hydrazinyl)-N-(4-chlorophenyl)-6-(4-(trifluoromethoxy)phenyl)-1,3,5-triazin-2-amine]: 76 to 100%.
The compound `FC(F)(F)Oc1ccc(C=NNc2nc(Nc3ccc(Cl)cc3)cc(-c3ccccc3)n2)cc1` [Example 57, N-(4-chlorophenyl)-6-phenyl-2-(2-(4-(trifluoromethoxy)benzylidene)hydrazinyl)pyrimidin-4-amine] displayed a mortality at 100 µg/cm2 of 76 to 100%.
Next, `FC(F)(F)Oc1ccc(C=NNc2nc(Nc3ccc(Cl)cc3)nc(-c3c(Cl)cc(Cl)cc3Cl)n2)cc1` [Example 27, N-(4-chlorophenyl)-4-(2,4,6-trichlorophenyl)-6-(2-(4-(trifluoromethoxy)benzylidene)hydrazinyl)-1,3,5-triazin-2-amine]: 0 to 25%; `CCCC=NNc1nc(Nc2ccc(Cl)cc2)nc(-c2c(F)cccc2Cl)n1` [Example 19, 4-(2-butylidenehydrazinyl)-6-(2-chloro-6-fluorophenyl)-N-(4-chlorophenyl)-1,3,5-triazin-2-amine]: 76 to 100%.

By mortality is commonly meant the percentage killed.

These data come from patent publication US8785630B2, “Insecticidal triazines and pyrimidines” (Vestaron Corporation, priority 2011, dated 2014).
